Tests used:
Assay type in all cases: in vivo
Digitaria sanguinalis = test: Example B: post-emergence herbicidal application, pot test
Source text: (§1) Dans des pots de 7 x 7 x 8 cm remplis de terre agricole légère, on sème un nombre de graines déterminé en fonction de l'espèce végétale et de la grosseur de la graine.
(§2) On recouvre ensuite les graines d'une couche de terre d'environ 3 mm d'épaisseur et on laisse germer la graine jusqu'à ce qu'elle donne naissance à une plantule au stade convenable. Le stade de traitement pour les graminées est le stade "deuxième feuille en formation ". Le stade de traitement pour les dicotylédones, est le stade "cotylédons étalés, première feuille vraie en développement".
(§3) Les pots sont alors traités par pulvérisation de bouillie en quantité correspondant à une dose volumique d'application de 500 l/ha et contenant la matière active à la concentration désirée.
(§4) La bouille a été préparée de la même manière qu'à l'exemple A.
(§5) Les pots traités sont ensuite placés dans des bacs destinés à recevoir l'eau d'arrosage, en subirrigation, et maintenus pendant 24 jours à température ambiante sous 70 % d'humidité relative.
(§6) Au bout de 24 jours, on mesure un pourcentage (D) de destruction du nombre de pieds dans le pot traité par rapport au nombre de plantes dans les pots non traités (témoin). On mesure, sur les plantes traitées restantes, le pourcentage de réduction de taille (RT) par rapport aux plantes témoin.
(§7) Le pourcentage du volume foliaire non détruit par le produit est donc donné par la formule : [formula]
(§8) Cette valeur A est transformée en notation de 0 à 5 selon l'échelle suivante :
(§9) Les résultats obtenus sont présentés après le tableau A pour des doses d'application de 4000 g/ha.

Solanum nigrum [1] = test: as above
Source text: as §1, §2, §3, §4, §5, §6, §7, §8, §9

Sinapis alba = test: as above
Source text: as §1, §2, §3, §4, §5, §6, §7, §8, §9

Echinochloa crusgalli = test: as above
Source text: as §1, §2, §3, §4, §5, §6, §7, §8, §9

Ipomea purpurea = test: as above
Source text: as §1, §2, §3, §4, §5, §6, §7, §8, §9

Lolium multiflorum = test: as above
Source text: as §1, §2, §3, §4, §5, §6, §7, §8, §9

Triticum aestivum = test: Example C: selectivity test in major crops, post-emergence application; conditions: crop (Blé), dose 2 kg/ha, 24 days, score 0-5, 0 or 1 = selective; also: ranges in brackets are in %
Source text: as §1
as §2, with “formation".” for “formation ".”
as §3
(§10) La bouillie a été préparée de la même manière qu'à l'exemple A.
as §5, §6
(§11) Le pourcentage de volume foliaire non détruit par le produit est donc donné par la formule : [formula]
as §8
(§12) Ainsi, un produit est jugé comme sélectif vis à vis de la culture lorsque la valeur A notée est de 0 ou 1.
(§13) Les résultats obtenus sont présentés dans l'exemple C pour des doses d'application comprises entre 0,5 et 4 kg de matière active par hectare selon les produits.

Xanthium pennsylvanicum = test: as above
Source text: as §1
as §2, with “formation".” for “formation ".”
as §3, §10, §5, §6, §11, §8, §12, §13

Solanum nigrum [2] = test: as above
Source text: as §1
as §2, with “formation".” for “formation ".”
as §3, §10, §5, §6, §11, §8, §12, §13

Oryza sativa = test: as above; conditions: crop (Riz), dose 2 kg/ha, 24 days, score 0-5, 0 or 1 = selective; also: ranges in brackets are in %
Source text: as §1
as §2, with “formation".” for “formation ".”
as §3, §10, §5, §6, §11, §8, §12, §13

Ipomea pupurea = test: as above
Source text: as §1
as §2, with “formation".” for “formation ".”
as §3, §10, §5, §6, §11, §8, §12, §13

Viola tricolor = test: as above
Source text: as §1
as §2, with “formation".” for “formation ".”
as §3, §10, §5, §6, §11, §8, §12, §13

Zea mays = test: as above; conditions: crop (Maïs), dose 2 kg/ha, 24 days, score 0-5, 0 or 1 = selective; also: ranges in brackets are in %
Source text: as §1
as §2, with “formation".” for “formation ".”
as §3, §10, §5, §6, §11, §8, §12, §13

Sesbania exaltata = test: as above
Source text: as §1
as §2, with “formation".” for “formation ".”
as §3, §10, §5, §6, §11, §8, §12, §13

[3] = 4 kg/ha, rated after 24 days, score 0-5 from % leaf volume not destroyed
[4] = weed, dose 1 kg/ha, 24 days, score 0-5

Structure (SMILES)	ACTIVITE DE POST-LEVEE DIG (Digitaria sanguinalis; 4000 g/ha, 576 h)	ACTIVITE DE POST-LEVEE SOL (Solanum nigrum [1]; 4000 g/ha, 576 h)	ACTIVITE DE POST-LEVEE SIN (Sinapis alba; 4000 g/ha, 576 h)	ACTIVITE DE POST-LEVEE ECH (Echinochloa crusgalli; 4000 g/ha, 576 h)	ACTIVITE DE POST-LEVEE IPO (Ipomea purpurea; 4000 g/ha, 576 h)	ACTIVITE DE POST-LEVEE LOL (Lolium multiflorum; 4000 g/ha, 576 h)	further results
CCN(CC)S(=O)(=O)n1nc(-c2ccccc2)nc1-c1ncccc1C(=O)O [compound 4]	3 (30 à 50)	1 (70 à 90)	2 (50 à 70)	3 (30 à 50)	2 (50 à 70)	–	–
COC(=O)c1cccnc1-c1nc(-c2ccccc2)nn1S(=O)(=O)c1ccccc1Cl [compound 24]	0 (90 à 100)	3 (30 à 50)	3 (30 à 50)	0 (90 à 100)	3 (30 à 50)	0 (90 à 100)	–
CN(C)S(=O)(=O)n1c(-c2ncccc2C(=O)O)nc2ccccc21 [compound 121]	0 (90 à 100)	5 (O à 10)	5 (O à 10)	3 (30 à 50)	4 (10 à 30)	–	–
O=C(O)c1cccnc1-c1n[nH]c(-c2cc(Cl)ccc2Cl)n1 [compound 73]	2 (50 à 70)	3 (30 à 50)	3 (30 à 50)	3 (30 à 50)	3 (30 à 50)	2 (50 à 70)	–
O=C(O)c1cccnc1-c1nc(-c2ccccc2)nn1S(=O)(=O)N1CCCC1 [compound 15]	3 (30 à 50)	1 (70 à 90)	1 (70 à 90)	3 (30 à 50)	2 (50 à 70)	3 (30 à 50)	–
O=C(O)c1cccnc1-c1n[nH]c(-c2ccccc2)n1 [compound 42, 3 - (3 - carboxy 2 - pyridyl) 5 - phényl 1,2,4 - triazole]	–	–	–	–	–	–	ACTIVITE DE POST-LEVEE SIN (Sinapis alba; [3]): 4 (10 à 30); ACTIVITE DE POST-LEVEE LOL (Lolium multiflorum; [3]): 1 (70 à 90); ACTIVITE DE POST-LEVEE ECH (Echinochloa crusgalli; [3]): 2 (50 à 70); ACTIVITE DE POST-LEVEE IPO (Ipomea purpurea; [3]): 4 (10 à 30)
O=C(O)c1cccnc1-c1n[nH]c(-c2sc(Cl)c(Cl)c2Cl)n1 [compound 44]	1 (70 à 90)	1 (70 à 90)	4 (10 à 30)	2 (50 à 70)	3 (30 à 50)	0 (90 à 100)	–
O=C(O)c1cccnc1-c1n[nH]c(-c2cc(Cl)cc(Cl)c2)n1 [compound 50]	2 (50 à 70)	0 (90 à 100)	0 (90 à 100)	3 (30 à 50)	3 (30 à 50)	0 (90 à 100)	–
CN(C)S(=O)(=O)n1nc(-c2ccccc2)nc1-c1ncccc1C(=O)O [compound 6]	0 (90 à 100)	5 (O à 10)	5 (O à 10)	0 (90 à 100)	4 (10 à 30)	–	ACTIVITE HERBICIDE DE POST LEVEE T R Z (Triticum aestivum): 0 (90 à 100); ACTIVITE HERBICIDE DE POST LEVEE X A N (Xanthium pennsylvanicum; 2000 g/ha, 576 h): 4 (10 à 30); ACTIVITE HERBICIDE DE POST LEVEE S O L (Solanum nigrum [2]; 2000 g/ha, 576 h): 5 (O à 10); ACTIVITE HERBICIDE DE POST LEVEE O R Y (Oryza sativa): 0 (90 à 100); ACTIVITE HERBICIDE DE POST LEVEE I P O (Ipomea pupurea; 2000 g/ha, 576 h): 5 (O à 10); ACTIVITE HERBICIDE DE POST LEVEE V I O (Viola tricolor; 2000 g/ha, 576 h): 4 (10 à 30); ACTIVITE HERBICIDE DE POST LEVEE Z E A (Zea mays): 0 (90 à 100); ACTIVITE HERBICIDE DE POST LEVEE S E S (Sesbania exaltata; 2000 g/ha, 576 h): 5 (O à 10)
CN(C)S(=O)(=O)n1nc(-c2ccc(Cl)cc2Cl)nc1-c1ncccc1C(=O)O [compound 3]	0 (90 à 100)	3 (30 à 50)	2 (50 à 70)	0 (90 à 100)	2 (50 à 70)	0 (90 à 100)	–
O=C(O)c1cccnc1-c1n[nH]c(-c2cccc(Cl)c2)n1 [compound 48]	3 (30 à 50)	1 (70 à 90)	2 (50 à 70)	3 (30 à 50)	3 (30 à 50)	2 (50 à 70)	–
CN(C)S(=O)(=O)n1c(-c2ncccc2C(=O)O)nc2ccccc21 [compound 75, 2-(1-N,N diméthylsulfamoyl 2-benzimidazolyl) 3-carboxy pyridine]	–	–	–	–	–	–	ACTIVITE HERBICIDE DE POST LEVEE X A N (Xanthium pennsylvanicum; [4]): 5 (O à 10); ACTIVITE HERBICIDE DE POST LEVEE S O L (Solanum nigrum [2]; [4]): 5 (O à 10); ACTIVITE HERBICIDE DE POST LEVEE I P O (Ipomea pupurea; weed, post-emergence, dose 1 kg/ha, 24 days, score 0-5): 5 (O à 10); ACTIVITE HERBICIDE DE POST LEVEE V I O (Viola tricolor; [4]): 4 (10 à 30); ACTIVITE HERBICIDE DE POST LEVEE S E S (Sesbania exaltata; [4]): 5 (O à 10); ACTIVITE DE POST-LEVEE DIG (Digitaria sanguinalis; [3]): 0 (90 à 100); ACTIVITE DE POST-LEVEE SOL (Solanum nigrum [1]; [3]): 5 (O à 10); ACTIVITE DE POST-LEVEE SIN (Sinapis alba; [3]): 5 (O à 10); ACTIVITE DE POST-LEVEE ECH (Echinochloa crusgalli; [3]): 0 (90 à 100); ACTIVITE DE POST-LEVEE IPO (Ipomea purpurea; [3]): 4 (10 à 30)
Cc1ccccc1-c1nc(-c2ncccc2C(=O)O)n[nH]1 [compound 54]	3 (30 à 50)	3 (30 à 50)	1 (70 à 90)	2 (50 à 70)	0 (90 à 100)	3 (30 à 50)	–
O=C(O)c1cccnc1-c1n[nH]c(C=Cc2ccccc2)n1 [compound 67]	2 (50 à 70)	2 (50 à 70)	2 (50 à 70)	0 (90 à 100)	3 (30 à 50)	0 (90 à 100)	–
CN(C)S(=O)(=O)n1nc(C(C)(C)C)nc1-c1ncccc1C(=O)O [compound 12]	0 (90 à 100)	4 (10 à 30)	4 (10 à 30)	0 (90 à 100)	3 (30 à 50)	0 (90 à 100)	–
O=C(O)c1cccnc1-c1n[nH]c(-c2ccc(Cl)cc2Cl)n1 [compound 43]	3 (30 à 50)	3 (30 à 50)	5 (O à 10)	4 (10 à 30)	4 (10 à 30)	3 (30 à 50)	–
O=C(O)c1cccnc1-c1n[nH]c(Cc2ccccc2)n1 [compound 45]	3 (30 à 50)	3 (30 à 50)	2 (50 à 70)	3 (30 à 50)	3 (30 à 50)	2 (50 à 70)	–
